Where two headings read alike, the source gives them in different places.
Columns and labels:
[1] = biological target: Cys242 in human PIK3CA (157-299) (Homo sapiens (Human), UniProt P42336); experiment: Covalent modification assay using MALDI-TOF MS; type: biochemical; conditions: 4 h reaction time point; 3.33 μM protein target, 1:7.5 protein to compound ratio (compounds 1-852)
Method in brief: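 PIK3CA (157-299), 3.33 or 1 μM in 20 mM HEPES, 150 mM NaCl, 2 mM MgCl2, pH 7.3, was incubated with compound at room temperature in the dark for 15 min, 30 min, 2 h or 4 h. Linear MALDI-TOF read-out; % modification = adduct peak height over summed heights of all protein species.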

[2] = system: pAKT in BT474 cells; experiment: Cell-based pAKT HTRF assay in BT474 cells; conditions: BT474 cells, 4 hr incubation, Compounds 10-999, read-out: pAKT inhibition IC50 in BT474 cells
Method in brief: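 Cells are seeded on day 1 and dosed on day 2 with a 9-point curve (3 μM top, 3-fold). After 4 hr they are lysed and the lysate is mixed with d2- and Eu Cryptate-labelled antibodies. HTRF is read after 4–24 h at room temperature.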

Cys242 in human PIK3CA (157-299), sequence (P42336 157-299): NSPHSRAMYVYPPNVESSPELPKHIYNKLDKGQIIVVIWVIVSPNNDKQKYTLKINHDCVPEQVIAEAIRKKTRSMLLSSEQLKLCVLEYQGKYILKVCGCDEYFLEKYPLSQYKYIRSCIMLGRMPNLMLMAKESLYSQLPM

Row | Structure (SMILES) | IC50 [2] | IC50 ([2]; Homo sapiens, BT-474) | % of modification [1]
1 | C=CC(=O)N1CCc2nc(-c3nc(-c4ccc5c(c4)CCNC5)c4ccsc4c3-c3c(F)cc(F)cc3OCCO)sc2C1 [Compound 415] | 100 to 1000 nM |  | A (percent of modification of PIK3CA protein ≥75%)
2 | C=CC(=O)N1CCc2nc(-c3nc(-c4ccc5c(c4)C(O)CC5)c4ccsc4c3-c3c(F)cc(F)cc3OCCOC)sc2C1 (stereo not shown) [Compound 416] | < 100 nM |  | A (percent of modification of PIK3CA protein ≥75%)
3 | C=CC(=O)N1CCc2nc(-c3nc(-c4ccc5c(c4)CCNC5)c4ccoc4c3-c3ccc(F)cc3OCCOC)sc2C1 [Compound 417] | < 100 nM |  | A (percent of modification of PIK3CA protein ≥75%)
4 | C=CC(=O)N1CCc2ncc(-c3nc(-c4cn(C)cn4)c4ccsc4c3-c3c(F)cc(F)cc3OC(C)C)cc2C1 [Compound 421] | < 100 nM |  | A (percent of modification of PIK3CA protein ≥75%)
5 | C=CC(=O)N1CCc2ncc(-c3nc(N4CCC5(CC4)COC5)c4ccsc4c3-c3c(F)cc(F)cc3OC(C)C)cc2C1 [Compound 423] | 100 to 1000 nM |  | A (percent of modification of PIK3CA protein ≥75%)
6 | C=CC(=O)N1CCc2ncc(-c3nc(-c4ccc5c(c4)CCN(C)C5)c4ccsc4c3-c3c(F)cc(F)cc3OC)cc2C1 [Compound 425] | < 100 nM |  | A (percent of modification of PIK3CA protein ≥75%)
7 | C=CC(=O)N1CCc2nc(-c3nc(-c4ccc5nn(C)cc5c4)c4ccsc4c3-c3c(F)cc(F)cc3OCCOC)sc2C1 [Compound 427] | < 100 nM |  | A (percent of modification of PIK3CA protein ≥75%)
8 | C=CC(=O)N1CCc2nc(-c3nc(-c4cccc(C(C)(C)O)c4)c4ccsc4c3-c3c(F)cc(F)cc3OCCOC)sc2C1 [Compound 429] | 100 to 1000 nM |  | A (percent of modification of PIK3CA protein ≥75%)
9 | C=CC(=O)N1CCc2nc(-c3nc(-c4ccc5c(c4)CCNC5)c4c(F)csc4c3-c3c(F)cc(F)cc3OCCOC)sc2C1 [Compound 434, 1-[2-[7-[2,4-difluoro-6-(2-methoxyethoxy)phenyl]-3-fluoro-4-(1,2,3,4-tetrahydroisoquinolin-6-yl)thieno[3,2-c]pyridin-6-yl]-6,7-dihydro-4H-thiazolo[5,4-c]pyridin-5-yl]prop-2-en-1-one] |  | 100 to 1000 nM | A (percent of modification of PIK3CA protein ≥75%)
10 | C=CC(=O)N1CCc2nc(-c3nc(-c4ccc(C(C)(C)C#N)cc4)c4ccsc4c3-c3c(F)cc(F)cc3OCCOC)sc2C1 [Compound 439] | 100 to 1000 nM |  | D (percent of modification <25%)
11 | C=CC(=O)N1CCc2nc(-c3nc(-c4cccc(C(C)(C)C#N)c4)c4ccsc4c3-c3c(F)cc(F)cc3OCCOC)sc2C1 [Compound 440] | 100 to 1000 nM |  | D (percent of modification <25%)
12 | C=CC(=O)N1CCc2nc(-c3nc(-c4ccc(C(C)(C)O)nc4)c4ccsc4c3-c3c(F)cc(F)cc3OCCOC)sc2C1 [Compound 445] | 100 to 1000 nM |  | A (percent of modification of PIK3CA protein ≥75%)
13 | C=CC(=O)N1CCc2nc(-c3nc(-c4cnc5c(c4)CNC(=O)C5)c4ccsc4c3-c3c(F)cc(F)cc3OCCOC)sc2C1 [Compound 446] | < 100 nM |  | A (percent of modification of PIK3CA protein ≥75%)
14 | C=CC(=O)N1CCc2ncc(-c3nc(-c4cnc(C)o4)c4ccsc4c3-c3c(F)cc(F)cc3OC(C)C)cc2C1 [Compound 455] | < 100 nM |  | A (percent of modification of PIK3CA protein ≥75%)
15 | C=CC(=O)N1Cc2cc(-c3nc(-c4cnn(C)c4)c4ccsc4c3-c3c(F)cc(F)cc3OC(C)C)nn2C[C@H]1C [Compound 456, 1-((R)-2-((R)-7-(2,4-difluoro-6-isopropoxyphenyl)-4-(1-methyl-1H-pyrazol-4-yl)thieno[3,2-c]pyridin-6-yl)-6-methyl-6,7-dihydropyrazolo[1,5-a]pyrazin-5(4H)-yl)prop-2-en-1-one] | > 3000 nM |  | D (percent of modification <25%)
16 | C=CC(=O)N1Cc2cc(-c3nc(-c4cnn(C)c4)c4ccsc4c3-c3c(F)cc(F)cc3OC(C)C)nn2C[C@H]1C [Compound 457, 1-((R)-2-((S)-7-(2,4-difluoro-6-isopropoxyphenyl)-4-(1-methyl-1H-pyrazol-4-yl)thieno[3,2-c]pyridin-6-yl)-6-methyl-6,7-dihydropyrazolo[1,5-a]pyrazin-5(4H)-yl)prop-2-en-1-one] | < 100 nM |  | A (percent of modification of PIK3CA protein ≥75%)
17 | C=CC(=O)N1CCc2nc(-c3nc(-c4cnn(C)c4)c4ccsc4c3-c3c(F)cc(Cl)cc3OCCOC)sc2C1 [Compound 464] | 100 to 1000 nM |  | A (percent of modification of PIK3CA protein ≥75%)
18 | C=C(F)C(=O)N1CCn2nc(-c3nc(-c4ccc5c(c4)CNC5=O)c4ccsc4c3-c3c(Cl)cccc3OC(C)C)cc2C1 [Compound 472] | 100 to 1000 nM |  | B (50%<percent of modification <75%)
19 | C=C(F)C(=O)N1Cc2cc(-c3nc(-c4ccc5c(c4)CCN(C)C5)c4ccsc4c3-c3c(F)cc(F)cc3OC(C)C)nn2CC1C (stereo not shown) [Compound 473] | 100 to 1000 nM |  | D (percent of modification <25%)

Second part, led by results:

Row | IC50 [2] | IC50 ([2]; Homo sapiens, BT-474) | Structure (SMILES) | % of modification [1]
20 | 100 to 1000 nM |  | C=CC(=O)N1CCC(n2cc(-c3nc(-c4ccc5c(c4)CCNC5)c4ccsc4c3-c3c(F)cc(F)cc3OC(C)C)cn2)C1 (stereo not shown) [Compound 410] | A (percent of modification of PIK3CA protein ≥75%)
21 |  | < 100 nM | C=CC(=O)N1CCc2ccc(-c3nc(-c4ccc5c(c4)CNC5=O)c4ccsc4c3-c3c(F)cc(F)cc3OC(C)C)nc2C1 [Compound 411, 5-[7-(2,4-difluoro-6-isopropoxy-phenyl)-6-(7-prop-2-enoyl-6,8-dihydro-5H-1,7-naphthyridin-2-yl)thieno[3,2-c]pyridin-4-yl]isoindolin-1-one] | A (percent of modification of PIK3CA protein ≥75%)
22 | < 100 nM |  | C=CC(=O)N1CCc2ncc(-c3nc(-c4cnc(C)n4C)c4ccsc4c3-c3c(F)cc(F)cc3OC(C)C)cc2C1 [Compound 412] | A (percent of modification of PIK3CA protein ≥75%)
23 | < 100 nM |  | C=CC(=O)N1CCc2nc(-c3nc(-c4ccc5c(c4)CCN(C)C5)c4ccsc4c3-c3c(F)cc(F)cc3OCCO)sc2C1 [Compound 418] | A (percent of modification of PIK3CA protein ≥75%)
24 | 100 to 1000 nM |  | C=CC(=O)N1CCc2nc(-c3nc(-c4ccc(C(C)(C)O)cc4)c4ccsc4c3-c3c(F)cc(F)cc3OCCOC)sc2C1 [Compound 419] | A (percent of modification of PIK3CA protein ≥75%)
25 | < 100 nM |  | C=CC(=O)N1CCc2nc(-c3nc(-c4ccc(C5(N)COC5)cc4)c4ccsc4c3-c3c(F)cc(F)cc3OCCOC)sc2C1 [Compound 426] | A (percent of modification of PIK3CA protein ≥75%)
26 | < 100 nM |  | C=CC(=O)N1CCc2nc(-c3nc(-c4ccc5oc(C)nc5c4)c4ccsc4c3-c3c(F)cc(F)cc3OCCOC)sc2C1 [Compound 428] | A (percent of modification of PIK3CA protein ≥75%)
27 | 100 to 1000 nM |  | C=CC(=O)N1CCc2nc(-c3nc(-c4ccc5c(c4)CCNC5)c4ccsc4c3-c3c(F)cc(F)cc3OCC)sc2C1 [Compound 430] | A (percent of modification of PIK3CA protein ≥75%)
28 | 100 to 1000 nM |  | C=CC(=O)N1CCc2nc(-c3nc(-c4cnc(C)s4)c4ccsc4c3-c3c(F)cc(F)cc3OCCOC)sc2C1 [Compound 431] | A (percent of modification of PIK3CA protein ≥75%)
29 | 100 to 1000 nM |  | C=CC(=O)N1CCc2nc(-c3nc(-c4ccc(C5(N)CCC5)cc4)c4ccsc4c3-c3c(F)cc(F)cc3OCCOC)sc2C1 [Compound 436] | A (percent of modification of PIK3CA protein ≥75%)
30 | 100 to 1000 nM |  | C=CC(=O)N1CCc2nc(-c3nc(-c4ccc5c(c4)CCN(C)C5)c4ccsc4c3-c3c(F)cc(F)cc3OCC)sc2C1 [Compound 438] | A (percent of modification of PIK3CA protein ≥75%)
31 | 100 to 1000 nM |  | C=CC(=O)N1CCc2nc(-c3nc(-c4ccc(C(C)(C)N)cc4)c4ccsc4c3-c3c(F)cc(F)cc3OCCOC)sc2C1 [Compound 443] | A (percent of modification of PIK3CA protein ≥75%)
32 |  | < 100 nM | C=CC(=O)N1CCc2cnc(-c3nc(-c4ccc5c(c4)CNC5=O)c4ccsc4c3-c3c(F)cc(F)cc3OC(C)C)cc2C1 [Compound 453, 5-[7-(2,4-difluoro-6-isopropoxy-phenyl)-6-(6-prop-2-enoyl-7,8-dihydro-5H-2,6-naphthyridin-3-yl)thieno[3,2-c]pyridin-4-yl]isoindolin-1-one] | A (percent of modification of PIK3CA protein ≥75%)
33 | 100 to 1000 nM |  | C=CC(=O)N1CCc2nc(-c3nc(-c4ccc5c(c4)CCNC5)c4ccsc4c3-c3c(F)cc(Cl)cc3OCCOC)sc2C1 [Compound 465] | A (percent of modification of PIK3CA protein ≥75%)
34 | < 100 nM |  | C=CC(=O)N1Cc2cc(-c3nc(-c4cnn(C)c4)c4ccsc4c3-c3c(F)cc(F)cc3OCCOC)nn2CC1C (stereo not shown) [Compound 469] | A (percent of modification of PIK3CA protein ≥75%)
35 | 100 to 1000 nM |  | C=CC(=O)N1CCc2nc(-c3nc(-c4ccc5c(c4)CCN(C)C5)c4ccsc4c3-c3c(F)cc(F)cc3OCC(F)F)sc2C1 [Compound 470] | A (percent of modification of PIK3CA protein ≥75%)

Source: patent US20250230138A1, “COMPOUNDS HAVING A T-STRUCTURE FORMED BY AT LEAST FOUR CYCLES FOR USE IN THE TREATMENT OF CANCER AND OTHER INDICATIONS” (TheRas, Inc., priority 2022, published 2025)
